Values of other authors as cited in patent US11686722B2, “Compositions and methods to detect molecules in a sample” (Infusense Corp., priority 2016, dated 2023).
Like-named read-outs stand apart in the source and are kept apart here.

Experiments:
[1] = neutral pH, shake-flask methodology
[2] = neutral pH, reverse-phase HPLC estimation

SMILES	time until metabolite appears in the urine, typical (following a dose of THC, urine) [h]	time until metabolite appears in the urine, longest (following a dose of THC, urine, can take as long as) [h]	n-octanol/water partition coefficient (KOW) [1]	n-octanol/water partition coefficient (KOW) [2]	clearance half-life (in vivo)	detectability in urine (urine)
CCCCCc1cc(O)c2c(c1)OC(C)(C)C1CCC(C(=O)O)=CC21 (stereo not drawn) [11-nor-9-carboxy-THC, 11-nor-9-carboxy-tetrahydrocannabinol]	≤ 1	≤ 4				
CCCCCc1cc(O)c2c(c1)OC(C)(C)[C@@H]1CCC(C)=C[C@@H]21 [THC, Δ^9-tetrahydrocannabinol]			6000	9,440,000	less than 30 minutes	not detectable in urine
